For one test, the system named is Aβ42 secretion. Nature of the test: Cellular γ-secretase assay (inhibition of Aβ42 secretion). The note with it: Homo sapiens, 22 h, human neuroglioma H4 cells overexpressing human APP, 22 hours incubation. It is filed as cell-based. The method, boiled down: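 H4 neuroglioma cells overexpressing human APP were exposed to compounds (ten-point dilution series, 0.4% DMSO) for 22 h at 37°C. Secreted Aβ42 in supernatant measured by electrochemiluminescence sandwich immunoassay (ruthenylated BAP15 detection, biotinylated 6E10 capture on streptavidin beads). IC50 by nonlinear regression.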
Broadly, the EC50 is the concentration needed to bring the measured effect to its halfway point. A high value points to a need for much substance. `CC(=O)N1CCC(C(C)c2ccc3[nH]c(C(=O)Nc4cc(F)cc(F)c4)cc3c2)C1` (stereo not shown) [Example 95, 5-(1-(1-Acetylpyrrolidin-3-yl)ethyl)-N-(3,5-difluorophenyl)-1H-indole-2-carboxamide] displayed an EC50 of 2.48 µM.

Consider `CC(c1ccc2[nH]c(C(=O)Nc3cc(F)cc(F)c3)cc2c1)C1CCN(CC(F)(F)F)C1` (stereo not shown) [Example 96, N-(3,5-Difluorophenyl)-5-(1-(1-(2,2,2-trifluoroethyl)pyrrolidin-3-yl)ethyl)-1H-indole-2-carboxamide], for which a half-maximal effect (EC50) was put at 7.72 µM.

The molecule `C=C(CCN1CCCCC1)c1ccc2[nH]c(C(=O)Nc3cc(F)cc(F)c3)cc2c1` [Example 97, N-(3,5-Difluorophenyl)-5-(4-(piperidin-1-yl)but-1-en-2-yl)-1H-indole-2-carboxamide] returned an EC50 of 1.26 µM.

Consider `CC(CCN1CCCCC1)c1ccc2[nH]c(C(=O)Nc3cc(F)cc(F)c3)cc2c1` (stereo not shown) [Example 98, N-(3,5-Difluorophenyl)-5-(4-(piperidin-1-yl)butan-2-yl)-1H-indole-2-carboxamide], for which the concentration for a half-maximal effect (EC50) came out at 1.04 µM.

For the molecule `CC(CN1CCCC1)c1ccc2[nH]c(C(=O)Nc3cccc(F)c3)cc2c1` (stereo not shown) [Example 99, N-(3-Fluorophenyl)-5-(1-(pyrrolidin-1-yl)propan-2-yl)-1H-indole-2-carboxamide], the concentration for a half-maximal effect (EC50) amounted to 1.25 µM.

Consider `O=C(Nc1ccc(F)c(F)c1)c1cc2cc(C(O)CN3CCCCC3)ccc2[nH]1` (stereo not shown) [Example 100, 5-(1-Hydroxy-2-piperidin-1-yl-ethyl)-1H-indole-2-carboxylic acid (3,4-difluoro-phenyl)-amide], for which a half-maximal response (EC50) required 2.61 µM.

The molecule `O=C(Nc1cc(F)cc(F)c1)c1cc2cc(/C=C/N3C(=O)[C@@H]4CC[C@H]3C4)ccc2[nH]1` [Example 101, 5-[(E)-2-((1S,4R)-3-Oxo-2-aza-bicyclo[2.2.1]hept-2-yl)-vinyl]-1H-indole-2-carboxylic acid (3,5-difluoro-phenyl)-amide] gave an EC50 of 3.83 µM.

`O=C(Nc1cc(F)cc(F)c1)c1cc2cc([C@@H]3CCN(CC(F)(F)F)C3)ccc2[nH]1` [Example 104, 5-[(S)-1-(2,2,2-Trifluoro-ethyl)-pyrrolidin-3-yl]-1H-indole-2-carboxylic acid (3,5-difluoro-phenyl)-amide] yielded an EC50 of 0.528 µM.

In the case of `CC(C)C(=O)N1CC[C@H](c2ccc3[nH]c(C(=O)Nc4cc(F)cc(F)c4)cc3c2)C1` [Example 105, 5-((R)-1-Isobutyryl-pyrrolidin-3-yl)-1H-indole-2-carboxylic acid (3,5-difluoro-phenyl)-amide], a half-maximal effect (EC50) was put at 1.21 µM.

`CC(C)C(=O)N1CC[C@@H](c2ccc3[nH]c(C(=O)Nc4cc(F)cc(F)c4)cc3c2)C1` [Example 106, 5-((S)-1-Isobutyryl-pyrrolidin-3-yl)-1H-indole-2-carboxylic acid (3,5-difluoro-phenyl)-amide] showed an EC50 of 0.889 µM.

In turn, `N#CCN1CC[C@H](c2ccc3[nH]c(C(=O)Nc4cccc(F)c4)cc3c2)C1` [Example 108, (R)-5-(1-(Cyanomethyl)pyrrolidin-3-yl)-N-(3-fluorophenyl)-1H-indole-2-carboxamide] showed an EC50 of 0.646 µM.

`N#CCN1CC[C@@H](c2ccc3[nH]c(C(=O)Nc4cccc(F)c4)cc3c2)C1` [Example 109, (S)-5-(1-(Cyanomethyl)pyrrolidin-3-yl)-N-(3-fluorophenyl)-1H-indole-2-carboxamide] displayed an EC50 of 0.472 µM.

`CC(C)N1CCC[C@H](c2ccc3[nH]c(C(=O)Nc4cccc(F)c4)cc3c2)C1` [Example 110, 5-((R)-1-Isopropyl-piperidin-3-yl)-1H-indole-2-carboxylic acid (3-fluoro-phenyl)-amide] displayed an EC50 of 0.116 µM.

`CC(C)N1CCC[C@@H](c2ccc3[nH]c(C(=O)Nc4cccc(F)c4)cc3c2)C1` [Example 111, 5-((S)-1-Isopropyl-piperidin-3-yl)-1H-indole-2-carboxylic acid (3-fluoro-phenyl)-amide] displayed an EC50 of 0.876 µM.

`CC(=O)N1CCC[C@H](c2ccc3[nH]c(C(=O)Nc4cc(F)cc(F)c4)cc3c2)C1` [Example 112, 5-((R)-1-Acetyl-piperidin-3-yl)-1H-indole-2-carboxylic acid (3,5-difluoro-phenyl)-amide]: the EC50 was 0.226 µM.

`CC(=O)N1CCC[C@@H](c2ccc3[nH]c(C(=O)Nc4cc(F)cc(F)c4)cc3c2)C1` [Example 113, 5-((S)-1-Acetyl-piperidin-3-yl)-1H-indole-2-carboxylic acid (3,5-difluoro-phenyl)-amide] returned an EC50 of 1.79 µM.

Turning to `O=C(Nc1cccc(F)c1)c1cc2cc([C@H]3CCCN(CCO)C3)ccc2[nH]1` [Example 114, (R)—N-(3-Fluorophenyl)-5-(1-(2-hydroxyethyl)piperidin-3-yl)-1H-indole-2-carboxamide], a half-maximal response (EC50) required 0.273 µM.

As for `O=C(Nc1cccc(F)c1)c1cc2cc([C@@H]3CCCN(CCO)C3)ccc2[nH]1` [Example 115, (S)—N-(3-Fluorophenyl)-5-(1-(2-hydroxyethyl)piperidin-3-yl)-1H-indole-2-carboxamide], the EC50 was found to be 1.5 µM.

`O=C(Nc1cccc(F)c1)c1cc2cc([C@H]3CCCN(C4CC4)C3)ccc2[nH]1` [Example 116, (R)-5-(1-Cyclopropylpiperidin-3-yl)-N-(3-fluorophenyl)-1H-indole-2-carboxamide] returned an EC50 of 0.545 µM.

`O=C(Nc1cccc(F)c1)c1cc2cc([C@@H]3CCCN(C4CC4)C3)ccc2[nH]1` [Example 117, (S)-5-(1-Cyclopropylpiperidin-3-yl)-N-(3-fluorophenyl)-1H-indole-2-carboxamide]: a half-maximal response (EC50) required 4.36 µM.

For the molecule `C[C@H](CN1CCCC1)c1ccc2[nH]c(C(=O)Nc3cccc(F)c3)cc2c1` [Example 118], the concentration for a half-maximal effect (EC50) amounted to 0.753 µM.

In the case of `C[C@@H](CN1CCCC1)c1ccc2[nH]c(C(=O)Nc3cccc(F)c3)cc2c1` [Example 119], a half-maximal response (EC50) required 1.73 µM.

`C[C@@H](c1ccc2[nH]c(C(=O)Nc3cc(F)cc(F)c3)cc2c1)[C@@H]1CCN(CC(F)(F)F)C1` [Example 120, N-(3,5-Difluorophenyl)-5-((R)-1-((S)-1-(2,2,2-trifluoroethyl)pyrrolidin-3-yl)ethyl)-1H-indole-2-carboxamide] returned an EC50 of 7.42 µM.

The molecule `C[C@@H](c1ccc2[nH]c(C(=O)Nc3cc(F)cc(F)c3)cc2c1)[C@H]1CCN(CC(F)(F)F)C1` [Example 121, N-(3,5-Difluorophenyl)-5-((R)-1-((R)-1-(2,2,2-trifluoroethyl)pyrrolidin-3-yl)ethyl)-1H-indole-2-carboxamide] yielded an EC50 of 7.48 µM.

`CC(=O)N1CC[C@@H]([C@H](C)c2ccc3[nH]c(C(=O)Nc4cc(F)cc(F)c4)cc3c2)C1` [Example 122, 5-((S)-1-((S)-1-Acetylpyrrolidin-3-yl)ethyl)-N-(3,5-difluorophenyl)-1H-indole-2-carboxamide] returned an EC50 of 2.07 µM.

The test is the same for the next values; noted with them: human neuroglioma H4 cells overexpressing human APP, 22 hours incubation.
`CN1CC[C@@H](c2ccc3[nH]c(C(=O)Nc4cc(F)cc(F)c4)cc3c2)C1` [Example 102, 5-((S)-1-Methyl-pyrrolidin-3-yl)-1H-indole-2-carboxylic acid (3,5-difluoro-phenyl)-amide]: the EC50 was found to be 0.3 µM.

Consider `CN1CC[C@H](c2ccc3[nH]c(C(=O)Nc4cc(F)cc(F)c4)cc3c2)C1` [Example 103, 5-((R)-1-Methyl-pyrrolidin-3-yl)-1H-indole-2-carboxylic acid (3,5-difluoro-phenyl)-amide], for which the midpoint of the response, the EC50, lay at 0.374 µM.

`CC(C)S(=O)(=O)N1CCC(c2ccc3[nH]c(C(=O)Nc4cc(F)cc(F)c4)cc3c2)C1` (stereo not shown) [Example 107] came in with an EC50 of 0.628 µM.

Values taken from patent US20150274661A1, “INDOL-AMIDE COMPOUNDS AS BETA-AMYLOID INHBITORS” (Hoffmann-La Roche Inc., priority 2012, published 2015).
